Source: ChEMBL document CHEMBL4699646, “Eleutheroside E Enhances the Long-Term Memory of Radiation-Damaged C. elegans through G-Protein-Coupled Receptor and Neuropeptide Signaling Pathways” (J Nat Prod, 2020)
Activity calls are given as the source filed them. The calls are words filed in the database; no cut-off is given here.

Legend:
[1] = tested on: Caenorhabditis elegans; assay: Memory enhancement effect in Caenorhabditis elegans N2 assessed as increase in long-term memory index at 0.1 mg/ml preincubated for 24 hrs followed by gamma-radiation treatment and measured after 24 hrs; type: functional, organism-based; details: time 48.0 hrs
[2] = tested on: Caenorhabditis elegans; assay: Protective activity against radioactive-induced Caenorhabditis elegans N2 at 0.05 to 0.2 mg/ml preincubated for 24 hrs followed by gamma-radiation treatment and measured after 24 hrs; type: functional, organism-based; details: dose mg/ml 0.05-0.2, time 48.0 hrs
[3] = tested on: Caenorhabditis elegans; assay: Protective activity against radioactive-induced Caenorhabditis elegans N2 assessed as head thrashes preincubated for 24 hrs followed by gamma-radiation treatment and measured after 24 hrs; type: functional, organism-based; details: time 48.0 hrs
[4] = tested on: Caenorhabditis elegans; assay: Protective activity against radioactive-induced Caenorhabditis elegans N2 assessed as body bends preincubated for 24 hrs followed by gamma-radiation treatment and measured after 24 hrs; type: functional, organism-based; details: time 48.0 hrs
[5] = tested on: Caenorhabditis elegans; assay: Protective activity against Butanone-induced Caenorhabditis elegans N2 assessed as chemotaxis index incubated for 1 hr; type: functional, organism-based
[6] = tested on: Caenorhabditis elegans; assay: Inhibition of neuropeptide signaling pathway in radioactive-induced Caenorhabditis elegans N2 assessed as down regulation of npr-11 mRNA expression preincubated for 24 hrs followed by gamma-radiation treatment and measured after 24 hrs qRT-PCR analysis; details: time 48.0 hrs
[7] = tested on: Caenorhabditis elegans; assay: Inhibition of neuropeptide pathway in radioactive-induced Caenorhabditis elegans N2 assessed as down regulation of npr-2 mRNA expression preincubated for 24 hrs followed by gamma-radiation treatment and measured after 24 hrs qRT-PCR analysis; details: time 48.0 hrs
[8] = tested on: Caenorhabditis elegans; assay: Inhibition of neuropeptide pathway in radioactive-induced Caenorhabditis elegans N2 assessed as down regulation of nlp-23 mRNA expression preincubated for 24 hrs followed by gamma-radiation treatment and measured after 24 hrs qRT-PCR analysis; details: time 48.0 hrs
[9] = tested on: Caenorhabditis elegans; assay: Inhibition of neuropeptide pathway in radioactive-induced Caenorhabditis elegans N2 assessed as down regulation of nlp-5 mRNA expression preincubated for 24 hrs followed by gamma-radiation treatment and measured after 24 hrs qRT-PCR analysis; details: time 48.0 hrs
[10] = tested on: Caenorhabditis elegans; assay: Inhibition of neuropeptide pathway in radioactive-induced Caenorhabditis elegans N2 assessed as down regulation of nlp-1 mRNA expression preincubated for 24 hrs followed by gamma-radiation treatment and measured after 24 hrs qRT-PCR analysis; details: time 48.0 hrs
[11] = tested on: Caenorhabditis elegans; assay: Inhibition of Gq-alpha-coupled PLC pathway in radioactive-induced Caenorhabditis elegans N2 assessed as down regulation of egl-30 mRNA expression preincubated for 24 hrs followed by gamma-radiation treatment and measured after 24 hrs qRT-PCR analysis; details: time 48.0 hrs
[12] = tested on: Caenorhabditis elegans; assay: Inhibition of Gs-apha-coupled PKA pathway in radioactive-induced Caenorhabditis elegans N2 assessed as down regulation of kin-2 mRNA expression preincubated for 24 hrs followed by gamma-radiation treatment and measured after 24 hrs qRT-PCR analysis; details: time 48.0 hrs
[13] = tested on: Caenorhabditis elegans; assay: Inhibition of Gq-alpha-coupled PLC pathway in radioactive-induced Caenorhabditis elegans N2 assessed as down regulation of egl-8 mRNA expression preincubated for 24 hrs followed by gamma-radiation treatment and measured after 24 hrs qRT-PCR analysis; details: time 48.0 hrs
[14] = tested on: Caenorhabditis elegans; assay: Inhibition of Gq-alpha-coupled PLC pathway in radioactive-induced Caenorhabditis elegans N2 assessed as up regulation of goa-1 mRNA expression preincubated for 24 hrs followed by gamma-radiation treatment and measured after 24 hrs qRT-PCR analysis; details: time 48.0 hrs
[15] = tested on: Caenorhabditis elegans; assay: Inhibition of Gs-apha-coupled PKA pathway in radioactive-induced Caenorhabditis elegans N2 assessed as down regulation of gsa-1 mRNA expression preincubated for 24 hrs followed by gamma-radiation treatment and measured after 24 hrs qRT-PCR analysis; details: time 48.0 hrs
[16] = tested on: Caenorhabditis elegans; assay: Inhibition of cGMP signaling pathway in radioactive-induced Caenorhabditis elegans N2 assessed as down regulation of odr-1 mRNA expression preincubated for 24 hrs followed by gamma-radiation treatment and measured after 24 hrs qRT-PCR analysis; details: time 48.0 hrs
[17] = tested on: Caenorhabditis elegans; assay: Inhibition of cGMP signaling pathway in radioactive-induced Caenorhabditis elegans N2 assessed as down regulation of daf-11 mRNA expression preincubated for 24 hrs followed by gamma-radiation treatment and measured after 24 hrs qRT-PCR analysis; details: time 48.0 hrs
[18] = tested on: Caenorhabditis elegans; assay: Inhibition of cGMP signaling pathway in radioactive-induced Caenorhabditis elegans N2 assessed as down regulation of tax-2 mRNA expression preincubated for 24 hrs followed by gamma-radiation treatment and measured after 24 hrs qRT-PCR analysis; details: time 48.0 hrs
[19] = tested on: Caenorhabditis elegans; assay: Inhibition of cGMP signaling pathway in radioactive-induced Caenorhabditis elegans N2 assessed as down regulation of tax-4 mRNA expression preincubated for 24 hrs followed by gamma-radiation treatment and measured after 24 hrs qRT-PCR analysis; details: time 48.0 hrs
[20] = tested on: Caenorhabditis elegans; assay: Memory enhancement effect in radioactive-induced Caenorhabditis elegans MT1434 harboring egl-30(n686) mutant assessed as memory index preincubated for 24 hrs followed by gamma-radiation treatment and measured after 24 hrs; type: functional, organism-based; details: time 48.0 hrs
[21] = tested on: Caenorhabditis elegans; assay: Memory enhancement effect in radioactive-induced Caenorhabditis elegans MY66 harboring egl-30(n686);Podr-1-mcherry::egl-30(mtIs35)] mutant assessed as memory index preincubated for 24 hrs followed by gamma-radiation treatment and measured after 24 hrs; type: functional, organism-based; details: time 48.0 hrs
[22] = tested on: Caenorhabditis elegans; assay: Memory enhancement effect in radioactive-induced Caenorhabditis elegans harboring RNAi egl8;egl-30(n686)ls(Podr-1-mcherry::egl-30) mutant assessed as memory index preincubated for 24 hrs followed by gamma-radiation treatment and measured after 24 hrs; type: functional, organism-based; details: time 48.0 hrs
[23] = tested on: Caenorhabditis elegans; assay: Memory enhancement effect in radioactive-induced Caenorhabditis elegans RB1341 harboring […] mutant assessed as memory index preincubated for 24 hrs followed by gamma-radiation treatment and measured after 24 hrs; type: functional, organism-based; details: time 48.0 hrs
[24] = tested on: Caenorhabditis elegans; assay: Memory enhancement effect in radioactive-induced Caenorhabditis elegans harboring RNAi podr-1::unc-31 mutant assessed as memory index preincubated for 24 hrs followed by gamma-radiation treatment and measured after 24 hrs; type: functional, organism-based; details: time 48.0 hrs
[25] = tested on: Caenorhabditis elegans; assay: Memory enhancement effect in radioactive-induced Caenorhabditis elegans assessed as increase in cAMP level preincubated for 24 hrs followed by gamma-radiation treatment and measured after 24 hrs; type: functional, organism-based; details: time 48.0 hrs
[26] = tested on: Caenorhabditis elegans; assay: Activation of CREB in radioactive-induced Caenorhabditis elegans YT17 harboring crh-1(tz2) mutant assessed as increase in long-term memory preincubated for 24 hrs followed by gamma-radiation treatment and measured after 24 hrs; details: time 48.0 hrs
[27] = tested on: Caenorhabditis elegans; assay: Activation of CREB in radioactive-induced Caenorhabditis elegans YT17 harboring crh-1(tz2) mutant assessed as reduction radiation-induced damage preincubated for 24 hrs followed by gamma-radiation treatment and measured after 24 hrs; details: time 48.0 hrs
[28] = tested on: Caenorhabditis elegans; assay: Activation of CREB in radioactive-induced Caenorhabditis elegans MY36 harboring [crh-1(tz2); Pmbr-1-mcherry::crh-1(mtIs18)] mutant assessed as increase in long-term memory preincubated for 24 hrs followed by gamma-radiation treatment and measured after 24 hrs; details: filed as activator, time 48.0 hrs

COc1cc([C@H]2OC[C@@H]3[C@@H]2CO[C@H]3c2cc(OC)c(O[C@@H]3O[C@H](CO)[C@@H](O)[C@H](O)[C@H]3O)c(OC)c2)cc(OC)c1O[C@@H]1O[C@H](CO)[C@@H](O)[C@H](O)[C@H]1O
Activity [1]: Active | Activity [2]: inactive | Activity [3]: inactive | Activity [4]: inactive | Activity [5]: inactive | inhibition [6]: Active | inhibition [7]: Active | inhibition [8]: Active | inhibition [9]: Active | inhibition [10]: Active | inhibition [11]: Active | inhibition [12]: Active | inhibition [13]: Active | inhibition [14]: Active | inhibition [15]: Active | inhibition [16]: inactive | inhibition [17]: inactive | inhibition [18]: inactive | inhibition [19]: inactive | Activity [20]: inactive | Activity [21]: Active | Activity [22]: inactive | Activity [23]: Active | Activity [24]: inactive | Activity [25]: Active | Activity [26]: inactive | Activity [27]: inactive | Activity [28]: Active
